Measured values taken from US8685952B2, “Method for the treatment of diabetes” (KOWA Co., Ltd., priority 2006, dated 2014).
Structures can show the parent of a compound that is named as a salt.

What was measured:
KKAy mice [1] = conditions: type II diabetes model, reported in the literature; cited from earlier work
KKAy mice [2] = experiment: oral glucose tolerance test in KKAy mice after 21 days of oral administration; format: in vivo; conditions: male KKAy mice; oral once a day for 21 days; pitavastatin 10 mg/kg, pravastatin 50 mg/kg, enalapril maleate 1 mg/kg; glucose 2 g/kg oral after 18 h fasting; compared with control group (combination also vs single administration groups, P<0.05)
Method: Male KKAy mice (age: 10 weeks, Nippon Cler Co., Ltd.) were provided. Throughout the duration of the experiment, the mice were housed in a cage with a controlled light/dark cycle (duration of light period with a room light: 7:00 a.m. to 7:00 p.m.) at a temperature of 23±3° C. and a humidity of 55±15% and were allowed to freely take a solid chow (CE-2; Nippon Cler Co., Ltd.) and tap water. Pitavastatin and/or enalapril maleate were suspended in a 0.5-mass % aqueous solution of carboxymethyl cellulose (Iwai Kagaku Co., Ltd.) so that the pitavastatin content and the enalapril maleate content were adjusted to 1 mg/mL and 0.1 mg/mL, respectively. Since pitavastatin has a water content of 9.43%, pitavastatin was weighed in an amount of 1.1 times by mass the target dose for compensation. The suspension was refrigerated (4° C.) in a light-tight bottle. The suspensions were prepared every 7 days. Twenty four KKAy mice were randomly divided into the following four groups (six mice per group): a control group, a pitavastatin alone (10 mg/kg) group, an enalapril maleate alone (1 mg/kg) group, and a pitavastatin (10 mg/kg) and enalapril maleate (1 mg/kg) combined use group. Each of pitavastatin and enalapril maleate was orally administered once a day at a dose of 10 mL/kg for 21 days, and a 0.5 mass % aqueous sodium carboxymethyl cellulose solution (10 mL/kg) was orally administered to the control group. […] Immediately after collection, blood glucose level was determined by means of a […] reader (GR-101, product of Terumo Co., Ltd.). After determination of the initial blood glucose level, an aqueous glucose solution was orally administered to each mouse (2 g/10 mL/kg), and blood glucose level was determined in a similar manner at 15, 30, 60, and 120 minutes after administration of glucose. In each group, AUC of blood glucose level was calculated. The differences between the control group and the drug-administered groups were analyzed on the basis of Dunnett's multiple comparison test, preceded by Bartlett's analysis of variance. […]

Compound | effect on impaired glucose tolerance / insulin resistance (KKAy mice [1]) | AUC of blood glucose level (to glucose tolerance hour 2) (KKAy mice [2])
O=C([O-])C[C@H](O)C[C@H](O)/C=C/c1c(C2CC2)nc2ccccc2c1-c1ccc(F)cc1.O=C([O-])C[C@H](O)C[C@H](O)/C=C/c1c(C2CC2)nc2ccccc2c1-c1ccc(F)cc1.[Ca+2] [pitavastatin, pitavastatin calcium] | effect of improving impaired glucose tolerance | tended to be reduced
CCOC(=O)[C@H](CCc1ccccc1)N[C@H]1CS[C@H](c2cccs2)CN(CC(=O)O)C1=O [temocapril] | reduction of insulin resistance | –
CCOC(=O)[C@H](CCc1ccccc1)N[C@@H](C)C(=O)N1CCC[C@H]1C(=O)O [enalapril maleate] | – | tended to be reduced
CC[C@H](C)C(=O)O[C@H]1C[C@H](O)C=C2C=C[C@H](C)[C@H](CC[C@@H](O)C[C@@H](O)CC(=O)O)[C@H]21 [pravastatin, pravastatin sodium] | effect of reversing impaired glucose tolerance | tended to be reduced
